± gives the expanded uncertainty stated by the source.

These results are taken from the NIST ThermoML archive (doi:10.1007/s10765-006-0095-5).

The nature of data set [1]: xn = mol fraction of the nth substance listed. The following applies: 101 kPa, Liquid, x1 = 1.
The conditions of data set [2]: 101 kPa, Liquid.
Data set [3] in a line: refractive index (Na D-line) (dimensionless). The following applies: 101.33 kPa, Liquid.

In general, mass density refers to mass per unit of volume. For the compound `c1ccccc1` [benzene] + CCCCN(CCCC)CCCC, the mass density in data set [1] (298.15 K) was 873.6 ± 2.5 kg/m3; in data set [1] (303.15 K) it was 870.8 ± 2.6 kg/m3; in data set [1] (308.15 K), 865.7 ± 2.7 kg/m3; in data set [1] (313.15 K), 861 ± 2.9 kg/m3; in data set [1] (318.15 K), 856.3 ± 3 kg/m3.
One may read the refractive index as the speed of light in vacuum divided by its phase velocity in the sample. For `c1ccccc1` [benzene], the mass density in data set [2] (298.15 K) came to 873.6 ± 2.5 kg/m3; in data set [2] (303.15 K), 870.8 ± 2.6 kg/m3; in data set [2] (308.15 K), 865.7 ± 2.7 kg/m3; in data set [2] (313.15 K) it was 861 ± 2.9 kg/m3; in data set [2] (318.15 K) it was 856.3 ± 3 kg/m3. The refractive index in data set [3] (298.15 K) worked out at 1.4979 ± 0.0019; in data set [3] (303.15 K) it was 1.4962 ± 0.0019; in data set [3] (308.15 K), 1.4944 ± 0.0019; in data set [3] (313.15 K), 1.4929 ± 0.0019; in data set [3] (318.15 K), 1.4911 ± 0.0019.
`CCN(CC)CC` [triethylamine]: the mass density in data set [2] (298.15 K) was 723.4 ± 1.9 kg/m3; in data set [2] (303.15 K), 717.9 ± 2.1 kg/m3; in data set [2] (308.15 K) it was 712.9 ± 2.2 kg/m3; in data set [2] (313.15 K), 708.3 ± 2.3 kg/m3; in data set [2] (318.15 K), 701.6 ± 2.4 kg/m3. The refractive index is 1.4011 ± 0.0019 in data set [3] (298.15 K); 1.3983 ± 0.0019 in data set [3] (303.15 K); 1.395 ± 0.0019 in data set [3] (308.15 K); 1.3928 ± 0.0019 in data set [3] (313.15 K); 1.3898 ± 0.0019 in data set [3] (318.15 K).
Consider `c1ccccc1` [benzene] + CCN(CC)CC, for which the mass density was found to be 873.6 ± 2.5 kg/m3 in data set [1] (298.15 K); 870.8 ± 2.6 kg/m3 in data set [1] (303.15 K); 865.7 ± 2.7 kg/m3 in data set [1] (308.15 K); 861 ± 2.9 kg/m3 in data set [1] (313.15 K); 856.3 ± 3 kg/m3 in data set [1] (318.15 K).
As to `CCCCN(CCCC)CCCC` [tributylamine], the mass density was 774.3 ± 2.1 kg/m3 in data set [2] (298.15 K); 770.8 ± 2.3 kg/m3 in data set [2] (303.15 K); 767.2 ± 2.4 kg/m3 in data set [2] (308.15 K); 763.6 ± 2.5 kg/m3 in data set [2] (313.15 K); 759.8 ± 2.6 kg/m3 in data set [2] (318.15 K). The refractive index in data set [3] (298.15 K) is recorded as 1.4274 ± 0.0019; in data set [3] (303.15 K) it was 1.4259 ± 0.0019; in data set [3] (308.15 K) it was 1.4231 ± 0.0019; in data set [3] (313.15 K) it was 1.421 ± 0.0019; in data set [3] (318.15 K) it was 1.4188 ± 0.0019.
